Measured values reported in ChEMBL document CHEMBL3817845, “Development of CNS multi-receptor ligands: Modification of known D2 pharmacophores” (Bioorg Med Chem, 2016).

Assays:
D(2) dopamine receptor = D(2) dopamine receptor (Homo sapiens, UniProt P14416); test: Displacement of [3H]N-methylspiperone from human recombinant dopamine D2 receptor incubated for […] by microbeta scintillation counting method
D(3) dopamine receptor [1] = target: T1, D(3) dopamine receptor (Homo sapiens, UniProt P35462); test: Displacement of [3H]N-methylspiperone from human recombinant dopamine D3 receptor incubated for […] by microbeta scintillation counting method
T1 sequence (P35462 whole entry): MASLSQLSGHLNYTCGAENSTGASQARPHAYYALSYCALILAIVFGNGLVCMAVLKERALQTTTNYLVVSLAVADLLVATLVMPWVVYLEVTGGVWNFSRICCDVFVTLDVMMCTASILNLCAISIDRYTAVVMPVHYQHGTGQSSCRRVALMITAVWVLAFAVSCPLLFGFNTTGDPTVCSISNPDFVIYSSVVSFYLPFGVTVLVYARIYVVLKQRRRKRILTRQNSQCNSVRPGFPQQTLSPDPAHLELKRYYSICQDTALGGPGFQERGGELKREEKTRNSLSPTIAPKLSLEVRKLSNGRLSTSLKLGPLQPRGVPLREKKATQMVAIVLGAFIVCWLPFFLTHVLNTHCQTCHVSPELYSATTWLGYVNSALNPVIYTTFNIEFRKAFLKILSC

D(4) dopamine receptor = target: T2, D(4) dopamine receptor (Homo sapiens, UniProt P21917); test: Displacement of [3H]N-methylspiperone from human recombinant dopamine D4 receptor incubated for […] by microbeta scintillation counting method
T2 sequence (P21917 whole entry): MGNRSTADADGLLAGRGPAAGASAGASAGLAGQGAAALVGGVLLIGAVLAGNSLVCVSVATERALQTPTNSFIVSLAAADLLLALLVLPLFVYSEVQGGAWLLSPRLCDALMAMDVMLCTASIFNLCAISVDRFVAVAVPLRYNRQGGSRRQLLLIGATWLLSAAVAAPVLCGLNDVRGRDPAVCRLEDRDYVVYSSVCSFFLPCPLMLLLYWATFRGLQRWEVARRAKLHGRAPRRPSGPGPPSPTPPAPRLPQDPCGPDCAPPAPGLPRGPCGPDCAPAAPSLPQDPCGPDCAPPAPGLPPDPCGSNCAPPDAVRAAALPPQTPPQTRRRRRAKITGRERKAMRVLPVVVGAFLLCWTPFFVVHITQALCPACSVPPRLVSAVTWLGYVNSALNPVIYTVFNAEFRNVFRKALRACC

[2] = target: T3, 5-hydroxytryptamine receptor 1A (Homo sapiens, UniProt P08908); test: (§1) Displacement of [3H]8-OH-DPAT from human recombinant 5HT1A receptor incubated for […] by microbeta scintillation counting method
T3 sequence (P08908 whole entry): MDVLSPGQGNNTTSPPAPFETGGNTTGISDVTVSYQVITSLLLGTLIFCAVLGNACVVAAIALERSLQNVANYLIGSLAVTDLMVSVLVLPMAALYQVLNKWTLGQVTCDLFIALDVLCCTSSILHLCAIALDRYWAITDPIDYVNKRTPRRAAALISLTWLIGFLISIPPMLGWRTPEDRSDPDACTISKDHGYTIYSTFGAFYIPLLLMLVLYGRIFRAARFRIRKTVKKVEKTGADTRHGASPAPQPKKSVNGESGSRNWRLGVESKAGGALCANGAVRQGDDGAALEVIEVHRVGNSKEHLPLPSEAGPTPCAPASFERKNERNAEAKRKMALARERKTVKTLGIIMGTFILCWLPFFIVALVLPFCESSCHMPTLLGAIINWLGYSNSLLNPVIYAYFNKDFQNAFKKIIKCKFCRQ

[3] = target: T4, 5-hydroxytryptamine receptor 2A (Homo sapiens, UniProt P28223); test: Displacement of [3H]Ketanserin from human recombinant 5HT2A receptor incubated for […] by microbeta scintillation counting method
T4 sequence (P28223 whole entry): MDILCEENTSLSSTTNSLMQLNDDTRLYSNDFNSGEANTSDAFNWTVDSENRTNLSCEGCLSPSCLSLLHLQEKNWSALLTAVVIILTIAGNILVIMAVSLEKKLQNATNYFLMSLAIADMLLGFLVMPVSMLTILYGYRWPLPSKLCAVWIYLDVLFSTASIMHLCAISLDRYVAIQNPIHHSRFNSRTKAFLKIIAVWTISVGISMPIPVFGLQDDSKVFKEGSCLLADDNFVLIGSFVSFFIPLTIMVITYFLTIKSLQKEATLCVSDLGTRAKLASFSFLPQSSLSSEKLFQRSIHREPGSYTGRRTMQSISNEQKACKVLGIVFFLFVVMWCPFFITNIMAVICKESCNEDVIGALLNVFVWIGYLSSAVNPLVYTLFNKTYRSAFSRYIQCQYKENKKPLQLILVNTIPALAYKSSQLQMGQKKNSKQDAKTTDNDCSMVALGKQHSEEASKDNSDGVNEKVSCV

[4] = target: 5-hydroxytryptamine receptor 7 (Homo sapiens, UniProt P34969); test: Displacement of [3H]LSD from human recombinant 5HT7 receptor incubated for […] by microbeta scintillation counting method
5-hydroxytryptamine receptor 7, sequence (P34969 whole entry): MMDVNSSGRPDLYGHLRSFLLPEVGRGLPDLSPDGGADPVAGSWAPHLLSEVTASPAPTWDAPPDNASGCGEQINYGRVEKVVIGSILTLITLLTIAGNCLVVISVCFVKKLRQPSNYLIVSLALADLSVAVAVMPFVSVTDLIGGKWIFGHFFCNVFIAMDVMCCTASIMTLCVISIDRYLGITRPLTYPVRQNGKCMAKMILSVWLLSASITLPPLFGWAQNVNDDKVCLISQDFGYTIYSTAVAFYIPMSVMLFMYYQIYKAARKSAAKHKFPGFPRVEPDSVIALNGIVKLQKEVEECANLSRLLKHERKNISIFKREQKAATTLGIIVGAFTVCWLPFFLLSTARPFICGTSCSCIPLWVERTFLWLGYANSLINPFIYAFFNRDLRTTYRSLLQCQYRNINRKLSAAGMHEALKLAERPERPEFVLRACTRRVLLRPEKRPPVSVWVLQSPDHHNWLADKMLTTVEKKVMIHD

[5] = target: 5-hydroxytryptamine receptor 2B (Homo sapiens, UniProt P41595); test: Displacement of [3H]LSD from human recombinant 5HT2B receptor incubated for […] by microbeta scintillation counting method
5-hydroxytryptamine receptor 2B, sequence (P41595 whole entry): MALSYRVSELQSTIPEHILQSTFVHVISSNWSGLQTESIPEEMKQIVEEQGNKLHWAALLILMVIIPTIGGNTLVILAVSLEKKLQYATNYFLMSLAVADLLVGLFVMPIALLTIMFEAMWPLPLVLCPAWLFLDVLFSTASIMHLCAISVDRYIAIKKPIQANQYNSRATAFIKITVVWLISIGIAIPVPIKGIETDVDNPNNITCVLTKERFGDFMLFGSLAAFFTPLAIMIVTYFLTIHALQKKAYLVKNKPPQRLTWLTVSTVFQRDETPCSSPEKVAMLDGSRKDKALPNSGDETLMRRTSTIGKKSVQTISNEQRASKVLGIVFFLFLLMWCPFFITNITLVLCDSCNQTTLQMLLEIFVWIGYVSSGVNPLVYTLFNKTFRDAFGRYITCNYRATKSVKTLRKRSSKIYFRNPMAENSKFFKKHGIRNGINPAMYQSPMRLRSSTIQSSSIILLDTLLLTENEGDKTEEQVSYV

[6] = target: T5, 5-hydroxytryptamine receptor 2C (5HT2C) (Homo sapiens, UniProt P28335); test: (§2) Displacement of [3H]Mesulergine from human recombinant 5HT2C receptor incubated for […] by microbeta scintillation counting method; conditions: human, recombinant 5HT2C receptor, probe [3H]Mesulergine
T5 sequence (P28335 whole entry): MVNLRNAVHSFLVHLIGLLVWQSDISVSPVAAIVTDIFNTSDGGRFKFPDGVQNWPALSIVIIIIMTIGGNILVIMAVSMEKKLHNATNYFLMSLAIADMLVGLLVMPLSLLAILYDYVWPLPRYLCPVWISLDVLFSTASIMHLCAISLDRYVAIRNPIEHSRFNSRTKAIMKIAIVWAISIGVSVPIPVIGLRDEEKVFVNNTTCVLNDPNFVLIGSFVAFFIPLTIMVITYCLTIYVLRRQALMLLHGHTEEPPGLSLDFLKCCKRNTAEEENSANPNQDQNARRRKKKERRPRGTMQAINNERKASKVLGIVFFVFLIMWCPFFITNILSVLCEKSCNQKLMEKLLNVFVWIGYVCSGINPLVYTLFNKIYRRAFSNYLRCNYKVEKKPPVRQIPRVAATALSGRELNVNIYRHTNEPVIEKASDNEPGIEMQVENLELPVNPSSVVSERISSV

[7] = target: Sodium-dependent serotonin transporter (Homo sapiens, UniProt P31645); test: Displacement of [3H]Citalopram from human recombinant SERT incubated for […] by microbeta scintillation counting method
Histamine H1 receptor = Histamine H1 receptor (Homo sapiens, UniProt P35367); test: Displacement of [3H]Pyrilamine from human recombinant histamine H1 receptor incubated for […] by microbeta scintillation counting method
Histamine H1 receptor, sequence (P35367 whole entry): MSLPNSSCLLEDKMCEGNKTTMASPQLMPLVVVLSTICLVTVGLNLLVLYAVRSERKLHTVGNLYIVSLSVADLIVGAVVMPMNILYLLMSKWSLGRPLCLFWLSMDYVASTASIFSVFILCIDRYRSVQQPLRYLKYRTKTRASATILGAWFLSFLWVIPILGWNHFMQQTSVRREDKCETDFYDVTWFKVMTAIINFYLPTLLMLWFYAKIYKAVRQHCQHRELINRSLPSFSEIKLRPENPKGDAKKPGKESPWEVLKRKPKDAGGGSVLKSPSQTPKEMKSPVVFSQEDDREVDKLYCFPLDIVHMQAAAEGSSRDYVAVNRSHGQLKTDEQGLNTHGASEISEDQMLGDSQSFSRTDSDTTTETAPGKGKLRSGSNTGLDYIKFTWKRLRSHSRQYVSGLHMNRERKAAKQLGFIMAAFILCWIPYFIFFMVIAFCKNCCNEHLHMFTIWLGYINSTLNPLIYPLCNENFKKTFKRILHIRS

[8] = target: T6, 5-hydroxytryptamine receptor 1A (Homo sapiens) (UniProt P08908); test: as §1
T6 sequence (whole entry): T3 sequence (P08908 whole entry)

[9] = Lipophilicity, log P of the compound; assay type: physicochemical; conditions: octanol/water
D(3) dopamine receptor [10] = target: T1, D(3) dopamine receptor; test: Displacement of [125I]-IABN from human recombinant dopamine D3 receptor expressed in HEK293 cell membrane incubated for 60 mins filtration binding assay
[11] = target: T4, 5-hydroxytryptamine receptor 2A; test: Binding affinity to 5HT2A receptor (unknown origin)
[12] = target: T7, 5-hydroxytryptamine receptor 2C (Homo sapiens, UniProt P28335); test: as §2
T7 sequence (P28335 whole entry): T5 sequence (P28335 whole entry)

D(2) dopamine receptor, sequence (P14416 whole entry): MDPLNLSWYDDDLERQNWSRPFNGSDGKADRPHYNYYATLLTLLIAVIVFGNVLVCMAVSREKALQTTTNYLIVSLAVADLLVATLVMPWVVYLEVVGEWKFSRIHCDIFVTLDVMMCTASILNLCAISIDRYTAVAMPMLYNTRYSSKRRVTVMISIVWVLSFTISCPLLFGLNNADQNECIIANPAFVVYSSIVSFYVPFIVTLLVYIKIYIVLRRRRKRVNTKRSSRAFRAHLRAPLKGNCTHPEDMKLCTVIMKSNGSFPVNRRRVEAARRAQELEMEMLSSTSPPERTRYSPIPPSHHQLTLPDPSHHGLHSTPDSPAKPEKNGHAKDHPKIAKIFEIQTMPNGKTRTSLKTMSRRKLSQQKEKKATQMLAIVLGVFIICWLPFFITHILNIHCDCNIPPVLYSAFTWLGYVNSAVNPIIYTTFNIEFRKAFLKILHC

Structure (SMILES)	Ki (D(2) dopamine receptor)	Ki (D(3) dopamine receptor [1])	Ki (D(4) dopamine receptor)	Ki [2]	Ki [3]	Ki [4]	Ki [5]	inhibition at […] [6]	Ki (Histamine H1 receptor; read-out: Ki)	other results
OC1(c2ccc(Cl)cc2)CCN(CCCc2nc3ccccc3s2)CC1	763 nM	28 nM	163 nM	34 nM	168 nM	189 nM	–	–	–	–
O=C1NCN(c2ccccc2)C12CCN(CCCCc1nc3ccccc3s1)CC2	24 nM	32 nM	132 nM	195 nM	> 10000 nM	626 nM	122 nM	< 50%	504 nM	inhibition [7]: < 50%
O=C(CCCCN1CCN(C(c2ccc(F)cc2)c2ccc(F)cc2)CC1)c1nc2ccccc2s1	159 nM	233 nM	1220 nM	–	1080 nM	562 nM	–	–	–	inhibition [8]: < 50%
O=C(CCCN1CCC(O)(c2ccc(Cl)cc2)CC1)c1ccc(F)cc1 [HALOPERIDOL]	–	–	–	–	–	–	–	–	–	logP [9]: 3.49
OC1(c2ccc(Cl)cc2)CCN(CCCCc2nc3ccccc3s2)CC1	–	291 nM	–	–	–	–	–	–	–	–
Fc1ccc(C(c2ccc(F)cc2)N2CCN(CCCCc3nc4ccccc4s3)CC2)cc1	195 nM	33 nM	68 nM	–	519 nM	778 nM	–	–	–	inhibition [8]: < 50%
O=C(CCCN1CCC(n2c(O)nc3ccccc32)CC1)c1ccc(F)cc1 [BENPERIDOL]	–	–	–	–	–	–	–	–	–	Ki (D(3) dopamine receptor [10]): 0.29 nM; Ki [11]: 1.2 nM
O=C(CCCCN1CCC2(CC1)C(=O)NCN2c1ccccc1)c1nc2ccccc2s1	–	18 nM	162 nM	–	–	–	–	< 50%	–	–
O=C1NCN(c2ccccc2)C12CCN(CCCCc1c[nH]c3ccccc13)CC2	–	31 nM	1.6 nM	376 nM	–	> 10000 nM	202 nM	< 50%	273 nM	Ki ([7]; read-out: Ki): 10 nM; Ki ([7]; read-out: pKi (converted)): 4.68 nM; logP [9]: 3.52
Cl.O=C(CCCCN1C2CCC1CC(O)(c1ccc(Cl)cc1)C2)c1nc2ccccc2s1 (stereo not drawn)	–	–	–	–	–	80 nM	758 nM	< 50%	1030 nM	pKi (D(2) dopamine receptor): 6.74; inhibition [8]: < 50%; inhibition [3]: < 50%; Ki ([7]; read-out: Ki): 54 nM; Ki ([7]; read-out: pKi (converted)): 4.68 nM
OC1(c2ccc(Cl)cc2)CCN(CCCCc2nc3ccccc3o2)CC1	438 nM	942 nM	229 nM	3150 nM	5970 nM	–	–	–	–	inhibition [4]: < 50%
O=C(CCCN1CCC2(CC1)C(=O)NCN2c1ccccc1)c1ccc(F)cc1 [SPIPERONE]	–	–	–	–	–	–	–	–	–	logP [9]: 2.78
O=C1NCN(c2ccccc2)C12CCN(CCCCc1nc3cc(Cl)ccc3s1)CC2	18 nM	499 nM	–	102 nM	–	–	36 nM	–	263 nM	Ki [12]: 614 nM; Ki ([7]; read-out: Ki): 3060 nM; Ki (Histamine H1 receptor; read-out: pKi (converted)): 275 nM
O=C1NCN(c2ccccc2)C12CCN(CCCCc1nc3ccccc3o1)CC2	10 nM	21 nM	118 nM	382 nM	–	1510 nM	905 nM	< 50%	535 nM	inhibition [3]: < 50%; inhibition [7]: < 50%
O=C(CCCCN1CCC(n2c(=O)[nH]c3cc(Cl)ccc32)CC1)c1nc2ccccc2s1	–	64 nM	–	–	–	–	–	–	–	–
OC1(c2ccc(Cl)cc2)CC2CCC(C1)N2CCCCc1nc2ccccc2s1 (stereo not drawn)	–	–	–	–	–	1010 nM	342 nM	–	–	Ki ([7]; read-out: Ki): 180 nM
